# What was measured:
# [1] = test system: xenograft tumors of PANC-1 cells; experiment: Fluorescence immunohistochemistry of E-cadherin and N-cadherin in PANC-1 xenograft tumors (FIG. 24); format: in vivo; conditions: immunocompromised mice
# Procedure: Paraffin-embedded tumor sections (5 μm) on glass slides were processed from immunohistochemistry using conjugated E-cadherin and N-cadherin antibodies (see A of FIG. 24). Background control (CTL) sections were prepared without the antibodies. Images are representative of at least five fields of view from two tumor sections. (B). Each bar represents the mean (±standard error of the mean) corrected density of tumor staining. Abbrev.: C=cohort; M=mouse number. E- and N-cadherin expression in paraffin-embedded xenograft tumors of PANC-1 cells in immunocompromised mice using conjugated E- and N-cadherin antibodies was detected by fluorescence immunohistochemistry. […] Images are representative of at least five fields of view from two tumor sections, and each bar represents the mean±standard error of the mean corrected density of tumor staining.
# [2] = test system: HCT-15 cells; experiment: Cell subpopulations (CD44/CD24) in HCT-15 cell line after cytokine exposure, imaging flow cytometry; format: cell-based; design: unit not given here; conditions: HCT-15 cells after exposure to cytokines singly or in pairs
# Procedure: Two authenticated colorectal carcinoma cell lines, HCT-15 and SW-620, were used to test the effect of different cytokine and cytokine cocktails, including IL-6, HGF, PGE-2, TGF-beta and MMP-9 alone or in a cocktail, on cell proliferation, EMT and cancer stem cell populations.
# In order to evaluate stem cell populations, cells were synchronized by serum starvation for 72 hours before seeding in 24-well ultra low attachment plates at a density of 200,000 cells/well. Cells were then detached using trypsin EDTA and washed twice with PBS (without Calcium or Magnesium). A cell proliferation dye, eFluor 450 was used to label cells. Cells were grown with DMEM with high glucose and 2 mM Gluatmine without FBS in the presence of selected cytokines and or cytokine cocktails over a period of 72 hrs.
# Cells that were grown in 5% serum were stained with the following antibody cocktails: CD24FITC, CD44PE and CD24FITC, CD133PE. Cells were also stained with a fixable live/dead efluor dye 506 to exclude dead cells. In parallel, cells were grown in the presence of 5% serum to evaluate CSC markers.
# (§1) Cells were fixed in 1% Paraformaldehyde for 15 minutes at room temperature and run on Flowsight using 2 lasers (488 nm at 60 mW and 405 nm at 30 mW). For cell lines, 100,000 events were collected whilst for enriched CTCs all events were collected until the sample finished.
# (§2) Flow cytometry data was analysed using IDEAS software. Double events, out of focus events, CD45PercPCy5.5 positive cells (in case of enriched CTCs), dead cells and non-nucleated events were eliminated from the fluorescence analysis of the cell population. FIG. 2 depicts scatterplots of flow cytometry experiments showing the enriched CTCs stained with an antibody containing CD44 after treatment with various cytokines and cytokine cocktails. Hoescht 33258 dye was used to stain nuclei in the case of the HCT-15 cell line and enriched CTCs. All experiments were stained with a fixable live/dead dye eFluor 506 to exclude dead cells.
# To evaluate which cocktail combinations were most likely involved in cell proliferation of presumed quiescent stem cells or de-differentiated stem cell-like cells, four cytokines, IL-6, HGF, PGE-2 and TGF-beta were added singly or in pairs to HCT-15 cells. Results of combinations that influenced cell proliferation of HCT-15 cells in culture are presented. […] FIG. 4 depicts cell proliferation of subpopulations in the HCT-15 cell line after exposure to various cytokines and cytokine cocktails.
# [3] = test system: SW-620 cells; experiment: SW-620 cells treated with cytokines with or without Irinotecan, flow cytometry for stem cell markers and apoptosis; format: cell-based, human; conditions: SW-620, cytokines 24 hours then 2 μM Irinotecan 36 hours; zero in non-treated control cells
# Procedure: SW-620 cells, a human colorectal adenocarcinoma cell line, were treated with cytokines alone or in combination including IL-6, TGF-beta, HGF, PGE-2, IL-6+PGE-2 and TGF-beta+HGF for 24 hours and compared to untreated SW-620 cells as control. Some treated and untreated SW-620 cells were then exposed to 2 μM Irinotecan for 36 hours at which point cells were harvested for flow cytometry to assess for stem cell markers and markers of apoptosis. The percentage of CD44+CD133− cells following treatment with various cytokine and cytokine cocktails is depicted in FIG. 10. Compared to non-cytokine treated cells, combinations with IL-6+PGE-2, and TGF-beta+HGF increased the number and percentage of cells that were CD44+CD133− as shown in FIG. 10 (stem cells). FIG. 11 depicts the percentage of CD44+CD133− cells following treatment with various cytokines and Irinotecan. […]
# Additionally, the percentage of CD44-CD133+ cells following treatment with various cytokines and cytokines cocktails was determined as depicted in FIG. 16. The percentage of CD44-CD133+ cells following treatment with various cytokines and Irinotecan was measured as depicted in FIG. 17. The percentage of CD44-CD133+ cells following treatment with various cytokine cocktails and Irinotecan was measured as depicted in FIG. 18. […]
# [4] = test system: enriched circulating tumour cells from a patient with colorectal cancer; experiment: Cultured enriched CTCs from a colorectal cancer patient treated with IL-6, IL-8 or PDGFBB (EpCAM, CD133, Lgr5 flow cytometry); format: cell-based, human
# Source text: A blood sample was collected from a patient with colorectal cancer six days after surgery. Blood samples were enriched for CTCs using RosetteSep CD 56 kit according to standard protocol. Prior to cell culture, cells were stained with the following antibody cocktail: EpCAM A488, CD133PE, CD 45 PerCP Cy5.5, and Lgr5-PE-Vio770. Cells were either cultured in low attachment well plates without cytokines (control cells) or with three different cytokines (IL-6, IL-8 or PDGFBB).
# Flow cytometry data was analysed using IDEAS software. Double events, out of focus events, CD45PercPCy5.5 positive cells, dead cells and non-nucleated events were eliminated from the fluorescence analysis of the cell population. Hoescht 33258 dye was used to stain nuclei of enriched CTCs. All experiments were stained with a fixable live/dead dye eFluor 506 to exclude dead cells.
# [5] = test system: enriched circulating tumour cells from a patient with metastatic prostate cancer; experiment: Cell proliferation / cancer stem cell markers (EpCAM, CD44, CD133) in enriched CTCs cultured with cytokine cocktails; format: cell-based, human
# Procedure: as §1
# as §2, with “cocktails.” for “cocktails. Hoescht 33258 dye was used to stain nuclei in the case of the HCT-15 cell line and enriched CTCs. All experiments were stained with a fixable live/dead dye eFluor 506 to exclude dead cells.”
# In order to determine if selected cytokines influence cell proliferation of circulating tumour cells (CTCs), whole blood was collected from a patient with metastatic prostate cancer. Circulating tumour cells were enriched from whole blood using RosetteSep CTC Enrichment cocktail. Briefly, samples of whole blood were incubated with RosetteSep (anti CD 56 for 20 minutes at room temperature). Phosphate buffered saline containing 2% Fetal Bovine Serum was added to the samples and layered on a Ficoll Paque gradient. After centrifugation, the supernatant which contained CTCs was washed twice with PBS containing 2% FBS. Equal volumes of the cell suspension were seeded into a 24-well ultra-low attachment polystyrene plate. […] FIG. 3 depicts scatterplots of flow cytometry experiments enriched CTCs stained with an antibody containing CD133 after treatment with various cytokines and cytokine cocktails.
# FIG. 6 depicts cell proliferation of subpopulations in cultured CTCs after exposure to various cytokines and cytokine cocktails. Cells were stained using an antibody containing CD44 PE.
# Cells were stained using an antibody containing CD133 PE.
# [6] = cultured CTCs from colorectal cancer patient
# [7] = cell culture period 8 days, CD44PE antibody cocktail
compound,measurement,setting,value
"Nc1ccn([C@@H]2O[C@H](CO)[C@@H](O)C2(F)F)c(=O)n1 [Gem, gemcitabine]",N-cadherin expression in tumor tissue,[1],remained consistent
IL6: cytokine Interleukin 6 added to cancer cells in culture,CD24 + CD44− cell subpopulation,[2],49.1
same,CD44 + CD24+ cell subpopulation,[2],5.63
same,CD44 + CD24− cell subpopulation,[2],1.35
same,CD44 − CD24− cell subpopulation,[2],43.2
same,percentage of CD44+CD133− stem cells,[3],enriched
same,EpCAM + CD133+ cell subpopulation,[4]; [6],0.1 percentages of gated subpopulations
same,EpCAM + CD133− cell subpopulation,[4]; [6],2.98 percentages of gated subpopulations
same,EpCAM − CD133+ cell subpopulation,[4]; [6],0.12 percentages of gated subpopulations
same,EpCAM − CD133− cell subpopulation,[4]; [6],90.5 percentages of gated subpopulations
same,EpCAM+CD133− subpopulation (cancer stem cell fraction),"[4]; cultured CTCs, colorectal cancer patient, 0.05% before culture, 2% control, listed as IL-6",significantly increased
same,percentage of cells positive for both EpCAM and CD44,"[5]; 8 days culture, CD44PE antibody cocktail",highest
same,EpCAM-CD44+ cell sub-population,"[5]; 8 days culture, no serum, CD44PE antibody cocktail",6.14 % gated
same,EpCAM + CD133+ cell subpopulation,[5]; CD133 PE antibody cocktail,23.5 percentages of gated subpopulations
same,EpCAM + CD133− cell subpopulation,[5]; CD133 PE antibody cocktail,0 percentages of gated subpopulations
same,EpCAM − CD133+ cell subpopulation,[5]; CD133 PE antibody cocktail,74.7 percentages of gated subpopulations
same,EpCAM − CD133− cell subpopulation,[5]; CD133 PE antibody cocktail,1.46 percentages of gated subpopulations
same,EpCAM + CD44+ cell subpopulation,[5]; [7],35.6 percentage of gated cells
same,EpCAM + CD44− cell subpopulation,[5]; [7],2.66 percentage of gated cells
same,EpCAM − CD44+ cell subpopulation,[5]; [7],6.14 percentage of gated cells
same,EpCAM − CD44− cell subpopulation,[5]; [7],55 percentage of gated cells

# From patent US20200306283A1, “CANCER TREATMENT AND METASTASIS INHIBITION USING AN ANTI-CANCER STEM CELL AGENT IN COMBINATION WITH A NEU1 SIALIDASE INHIBITOR OR A CYTOKINE INHIBITOR AFTER PRIMARY CANCER TREATMENT” (priority 2016, published 2020)
